Data published in patent publication US12441754B2, “Galactoside inhibitor of galectins” (GALECTO BIOTECH AB, priority 2019, dated 2025).
Like-named read-outs stand apart in the source and are kept apart here.

How the values were obtained:
Galectin-3 = Galectin-3 (Homo sapiens, UniProt P17931); assay: fluorescence anisotropy assay, compound as inhibitor of galectin / fluorescein tagged saccharide probe interaction; assay type: binding
Text: (§1) Anal. Biochem. 334: 36-47, (Sörme et al., 2004) and Monovalent interactions of Galectin-1 By Salomonsson, Emma; Larumbe, Amaia; Tejler, Johan; Tullberg, Erik; Rydberg, Hanna; Sundin, Anders; Khabut, Areej; Frejd, Torbjorn; Lobsanov, Yuri D.; Rini, James M.; et al, From Biochemistry (2010), 49(44), 9518-9532, (Salomonsson et al., 2010).

Galectin-1 = Galectin-1 (Homo sapiens, UniProt P09382); assay: as above; assay type: binding
Sequence of Galectin-1 (P09382 whole entry): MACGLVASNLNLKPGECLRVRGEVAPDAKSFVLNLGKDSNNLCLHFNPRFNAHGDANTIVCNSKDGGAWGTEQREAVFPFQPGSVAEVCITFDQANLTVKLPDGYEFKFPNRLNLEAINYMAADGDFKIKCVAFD
Text: as §1

Sequence of Galectin-3 (P17931 whole entry): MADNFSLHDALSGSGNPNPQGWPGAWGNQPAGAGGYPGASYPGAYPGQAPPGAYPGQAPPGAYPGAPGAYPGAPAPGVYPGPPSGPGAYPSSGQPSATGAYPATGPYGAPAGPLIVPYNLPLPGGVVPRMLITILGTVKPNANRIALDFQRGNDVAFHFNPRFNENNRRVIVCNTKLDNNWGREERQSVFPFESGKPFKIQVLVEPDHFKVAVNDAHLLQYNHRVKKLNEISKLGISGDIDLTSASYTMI

Question: `CO[C@@H]1[C@@H](n2cc(-c3nccs3)nn2)[C@@H](O)[C@@H](CO)O[C@@H]1Sc1cncc(Br)c1` [Example 2, 5-Bromopyridin-3-yl 3-deoxy-2-O-methyl-3-[4-(2-thiazolyl)-1H-1,2,3-triazol-1-yl]-1-thio-α-D-galactopyranoside] was tested. Which Kd (Galectin-3) did it give?
Answer: The Kd was 3000 nM.

Question: What about the Kd (Galectin-1) of the same compound?
Answer: The Kd was 230 nM.

Question: How did the Kd (Galectin-3) turn out when `CO[C@@H]1[C@@H](n2cc(-c3nccs3)nn2)[C@@H](O)[C@@H](CO)O[C@@H]1Sc1cc(Br)cnc1C#N` [Example 3, 5-Bromo-2-cyanopyridin-3-yl 3-deoxy-2-O-methyl-3-[4-(2-thiazolyl)-1H-1,2,3-triazol-1-yl]-1-thio-α-D-galactopyranoside] was run?
Answer: Its Kd is 1100 nM.

Question: What about the Kd (Galectin-1) of the same compound?
Answer: Its Kd is 110 nM.

Question: How did the Kd (Galectin-3) turn out when `CO[C@@H]1[C@@H](n2cc(-c3nccs3)nn2)[C@@H](O)[C@@H](CO)O[C@@H]1Sc1cc(Cl)cnc1C#N` [Example 4, 5-Chloro-2-cyanopyridin-3-yl 3-deoxy-2-O-methyl-3-[4-(2-thiazolyl)-1H-1,2,3-triazol-1-yl]-1-thio-α-D-galactopyranoside] was run?
Answer: Its Kd is 1200 nM.

Question: What about the Kd (Galectin-1) of the same compound?
Answer: Its Kd is 110 nM.

Question: Which results are given for `N#Cc1ncc(Cl)cc1S[C@H]1O[C@H](CO)[C@H](O)[C@H](n2cc(-c3nccs3)nn2)[C@H]1OCc1ccccc1` [Example 5, 5-Chloro-2-cyanopyridin-3-yl 2-O-benzyl-3-deoxy-3-[4-(2-thiazolyl)-1H-1,2,3-triazol-1-yl]-1-thio-α-D-galactopyranoside]?
Answer: Kd (Galectin-3): 1800 nM; Kd (Galectin-1): 190 nM

Question: Which results are given for `N#Cc1ncc(Cl)cc1S[C@H]1O[C@H](CO)[C@H](O)[C@H](n2cc(-c3nccs3)nn2)[C@H]1OCc1cc(F)c(O)c(F)c1` [Example 6, 5-Chloro-2-cyanopyridin-3-yl 3-deoxy-2-O-(3,5-difluoro-4-hydroxybenzyl)-3-[4-(2-thiazolyl)-1H-1,2,3-triazol-1-yl]-1-thio-α-D-galactopyranoside]?
Answer: Kd (Galectin-3): 950 nM; Kd (Galectin-1): 96 nM

Question: For `CO[C@@H]1[C@@H](n2cc(-c3csc(O)n3)nn2)[C@@H](O)[C@@H](CO)O[C@@H]1Sc1cc(Cl)c(F)c(Cl)c1` [Example 7, 3,5-Dichloro-4-fluorophenyl 3-deoxy-3-[4-(2-hydroxythiazol-4-yl)-1H-1,2,3-triazol-1-yl]-2-O-methyl-1-thio-α-D-galactopyranoside], which Kd (Galectin-3) is on record?
Answer: The Kd was 2600 nM.

Question: And the Kd (Galectin-1; read-out: Galectin-1 Kd)?
Answer: The Kd was 29 nM.

Question: What does the source list for `CC(C)O[C@@H]1[C@@H](n2cc(-c3csc(O)n3)nn2)[C@@H](O)[C@@H](CO)O[C@@H]1Sc1ccc(Cl)c(Cl)c1` [Example 8, 3,4-Dichlorophenyl 3-deoxy-3-[4-(2-hydroxythiazol-4-yl)-1H-1,2,3-triazol-1-yl]-2-O-isopropyl-1-thio-α-D-galactopyranoside]?
Answer: Kd (Galectin-3): > 100000 nM; Kd (Galectin-1): 100 nM

Question: Which Kd (Galectin-3) does the source give for `CO[C@@H]1[C@@H](n2cc(-c3csc(O)n3)nn2)[C@@H](O)[C@@H](CO)O[C@@H]1Sc1ccc(Cl)c(Cl)c1` [Example 9, 3,4-Dichlorophenyl 3-deoxy-3-[4-(2-hydroxythiazol-4-yl)-1H-1,2,3-triazol-1-yl]-2-O-methyl-1-thio-α-D-galactopyranoside] here?
Answer: Its Kd is 4600 nM.

Question: What about the Kd (Galectin-1; read-out: Galectin-1 Kd) of the same compound?
Answer: The Kd was 41 nM.

Question: Which Kd (Galectin-3) does the source give for `OC[C@H]1O[C@H](Sc2ccc(Cl)c(Cl)c2)C[C@@H](n2cc(-c3csc(O)n3)nn2)[C@H]1O` [Example 10, 3,4-Dichlorophenyl 2,3-dideoxy-3-[4-(2-hydroxythiazol-4-yl)-1H-1,2,3-triazol-1-yl]-1-thio-α-D-galactopyranoside] here?
Answer: The Kd was 5300 nM.

Question: What about the Kd (Galectin-1) of the same compound?
Answer: Its Kd is 82 nM.

Question: Which Kd (Galectin-3) does the source give for `CO[C@@H]1[C@@H](n2cc(-c3nc(Cl)cs3)nn2)[C@@H](O)[C@@H](CO)O[C@@H]1Sc1cc(Br)cnc1C#N` [Example 11, 5-Bromo-2-cyanopyridin-3-yl 3-[4-(4-chlorothiazol-2-yl)-1H-1,2,3-triazol-1-yl]-3-deoxy-2-O-methyl-1-thio-α-D-galactopyranoside] here?
Answer: Its Kd is 170 nM.

Question: And the Kd (Galectin-1)?
Answer: Its Kd is 19 nM.

Question: What does the source list for `CO[C@@H]1[C@@H](n2cc(-c3nc(Cl)cs3)nn2)[C@@H](O)[C@@H](CO)O[C@@H]1Sc1cnc(C#N)c(Br)c1` [Example 12, 3-Bromo-2-cyanopyridin-5-yl 3-[4-(4-chlorothiazol-2-yl)-1H-1,2,3-triazol-1-yl]-3-deoxy-2-O-methyl-1-thio-α-D-galactopyranoside]?
Answer: Kd (Galectin-3): 270 nM; Kd (Galectin-1): 24 nM

Question: How did the Kd (Galectin-3) turn out when `CO[C@@H]1[C@@H](n2cc(-c3nc(Cl)cs3)nn2)[C@@H](O)[C@@H](CO)O[C@@H]1Sc1cc(Cl)cnc1C#N` [Example 13, 5-Chloro-2-cyanopyridin-3-yl 3-[4-(4-chlorothiazol-2-yl)-1H-1,2,3-triazol-1-yl]-3-deoxy-2-O-methyl-1-thio-α-D-galactopyranoside] was run?
Answer: Its Kd is 160 nM.

Question: What about the Kd (Galectin-1) of the same compound?
Answer: Its Kd is 25 nM.

Question: What does the source list for `CO[C@@H]1[C@@H](n2cc(-c3nc(Cl)cs3)nn2)[C@@H](O)[C@@H](CO)O[C@@H]1Sc1cnc(C#N)c(Cl)c1` [Example 14, 3-Chloro-2-cyanopyridin-5-yl 3-[4-(4-chlorothiazol-2-yl)-1H-1,2,3-triazol-1-yl]-3-deoxy-2-O-methyl-1-thio-α-D-galactopyranoside]?
Answer: Kd (Galectin-3): 370 nM; Kd (Galectin-1): 30 nM

Question: With `CO[C@@H]1[C@@H](n2cc(-c3csc(Cl)n3)nn2)[C@@H](O)[C@@H](CO)O[C@@H]1Sc1cc(Cl)cnc1C#N` [Example 15, 5-Chloro-2-cyanopyridin-3-yl 3-[4-(2-chlorothiazol-4-yl)-1H-1,2,3-triazol-1-yl]-3-deoxy-2-O-methyl-1-thio-α-D-galactopyranoside] as the compound, how does the Kd (Galectin-3) read?
Answer: The Kd was 200 nM.

Question: What about the Kd (Galectin-1) of the same compound?
Answer: Its Kd is 56 nM.

Question: How did the Kd (Galectin-3) turn out when `CO[C@@H]1[C@@H](n2cc(-c3csc(N)n3)nn2)[C@@H](O)[C@@H](CO)O[C@@H]1Sc1cc(Cl)c(F)c(Cl)c1` [Example 16, 3,5-Dichloro-4-fluorophenyl 3-[4-(2-aminothiazol-4-yl)-1H-1,2,3-triazol-1-yl]-3-deoxy-2-O-methyl-1-thio-α-D-galactopyranoside] was run?
Answer: Its Kd is 8400 nM.

Question: And the Kd (Galectin-1; read-out: Galectin-1 Kd)?
Answer: The Kd was 69 nM.

Question: What does the source list for `CO[C@@H]1[C@@H](n2cc(-c3csc(N)n3)nn2)[C@@H](O)[C@@H](CO)O[C@@H]1Sc1cc(Cl)cnc1C#N` [Example 17, 5-Chloro-2-cyanopyridin-3-yl 3-[4-(2-aminothiazol-4-yl)-1H-1,2,3-triazol-1-yl]-3-deoxy-2-O-methyl-1-thio-α-D-galactopyranoside]?
Answer: Kd (Galectin-3): 1900 nM; Kd (Galectin-1): 33 nM

Question: With `CO[C@@H]1[C@@H](n2cc(-c3csc(N)n3)nn2)[C@@H](O)[C@@H](CO)O[C@@H]1Sc1cc(Cl)cnc1C` [Example 18, 5-Chloro-2-methylpyridin-3-yl 3-[4-(2-aminothiazol-4-yl)-1H-1,2,3-triazol-1-yl]-3-deoxy-2-O-methyl-1-thio-α-D-galactopyranoside] as the compound, how does the Kd (Galectin-3) read?
Answer: The Kd was 5400 nM.

Question: What about the Kd (Galectin-1) of the same compound?
Answer: The Kd was 120 nM.

Question: With `N#Cc1ncc(Cl)cc1S[C@H]1O[C@H](CO)[C@H](O)[C@H](n2cc(-c3csc(N)n3)nn2)[C@H]1OCc1ccccc1` [Example 19, 5-Chloro-2-cyanopyridin-3-yl 3-[4-(2-aminothiazol-4-yl)-1H-1,2,3-triazol-1-yl]-2-O-benzyl-3-deoxy-1-thio-α-D-galactopyranoside] as the compound, how does the Kd (Galectin-3) read?
Answer: Its Kd is 1800 nM.

Question: What about the Kd (Galectin-1) of the same compound?
Answer: Its Kd is 79 nM.

Question: Which Kd (Galectin-3) does the source give for `CCO[C@@H]1[C@@H](n2cc(-c3csc(N)n3)nn2)[C@@H](O)[C@@H](CO)O[C@@H]1Sc1cc(Cl)cnc1C` [Example 20, 5-Chloro-2-methylpyridin-3-yl 3-[4-(2-aminothiazol-4-yl)-1H-1,2,3-triazol-1-yl]-3-deoxy-2-O-ethyl-1-thio-α-D-galactopyranoside] here?
Answer: The Kd was 6200 nM.

Question: And the Kd (Galectin-1)?
Answer: Its Kd is 67 nM.

Question: What does the source list for `CO[C@@H]1[C@@H](n2cc(-c3csc(N)n3)nn2)[C@@H](O)[C@@H](CO)O[C@@H]1Sc1cc(Cl)cnc1-c1cncnc1` [Example 21, 5-Chloro-2-(pyrimidin-5-yl)pyridin-3-yl 3-[4-(2-aminothiazol-4-yl)-1H-1,2,3-triazol-1-yl]-3-deoxy-2-O-methyl-1-thio-α-D-galactopyranoside]?
Answer: Kd (Galectin-3): 2300 nM; Kd (Galectin-1): 45 nM

Question: With `CO[C@@H]1[C@@H](n2cc(-c3csc(N)n3)nn2)[C@@H](O)[C@@H](CO)O[C@@H]1Sc1cc(Cl)cnc1-c1ccncc1` [Example 22, 5-Chloro-2-(pyridin-4-yl)pyridin-3-yl 3-[4-(2-aminothiazol-4-yl)-1H-1,2,3-triazol-1-yl]-3-deoxy-2-O-methyl-1-thio-α-D-galactopyranoside] as the compound, how does the Kd (Galectin-3) read?
Answer: Its Kd is 4100 nM.

Question: And the Kd (Galectin-1)?
Answer: Its Kd is 26 nM.

Question: With `CO[C@@H]1[C@@H](n2cc(-c3csc(N)n3)nn2)[C@@H](O)[C@@H](CO)O[C@@H]1Sc1cc(Cl)cnc1-c1cccnc1` [Example 23, 5-Chloro-2-(pyridin-3-yl)pyridin-3-yl 3-[4-(2-aminothiazol-4-yl)-1H-1,2,3-triazol-1-yl]-3-deoxy-2-O-methyl-1-thio-α-D-galactopyranoside] as the compound, how does the Kd (Galectin-3) read?
Answer: Its Kd is 4200 nM.

Question: And the Kd (Galectin-1)?
Answer: The Kd was 30 nM.

Question: `CO[C@@H]1[C@@H](n2cc(-c3csc(N)n3)nn2)[C@@H](O)[C@@H](CO)O[C@@H]1Sc1cc(Cl)cnc1C1=CCNCC1` [Example 24, 5-Chloro-2-(1,2,3,6-tetrahydropyridin-4-yl)pyridin-3-yl 3-[4-(2-aminothiazol-4-yl)-1H-1,2,3-triazol-1-yl]-3-deoxy-2-O-methyl-1-thio-α-D-galactopyranoside] was tested. Which Kd (Galectin-3) did it give?
Answer: The Kd was 3300 nM.

Question: What about the Kd (Galectin-1) of the same compound?
Answer: Its Kd is 150 nM.

Question: Which Kd (Galectin-3) does the source give for `N#Cc1ncc(Cl)cc1S[C@H]1O[C@H](CO)[C@H](O)[C@H](n2cc(-c3csc(N)n3)nn2)[C@H]1OCc1cc(F)c(O)c(F)c1` [Example 25, 5-Chloro-2-cyanopyridin-3-yl 3-[4-(2-aminothiazol-4-yl)-1H-1,2,3-triazol-1-yl]-3-deoxy-2-O-(3,5-difluoro-4-hydroxybenzyl)-1-thio-α-D-galactopyranoside] here?
Answer: The Kd was 740 nM.

Question: And the Kd (Galectin-1)?
Answer: The Kd was 24 nM.

Question: Which Kd (Galectin-3) does the source give for `CO[C@@H]1[C@@H](n2cc(-c3csc(N)n3)nn2)[C@@H](O)[C@@H](CO)O[C@@H]1Sc1cc(Cl)cnc1-c1ccccn1` [Example 26, 5-Chloro-2-(pyridin-2-yl)pyridin-3-yl 3-[4-(2-aminothiazol-4-yl)-1H-1,2,3-triazol-1-yl]-3-deoxy-2-O-methyl-1-thio-α-D-galactopyranoside] here?
Answer: Its Kd is 1700 nM.

Question: What about the Kd (Galectin-1) of the same compound?
Answer: Its Kd is 17 nM.
